{"source": "paper PMC8453901", "about": "“GLPG1205, a GPR84 Modulator: Safety, Pharmacokinetics, and Pharmacodynamics in Healthy Subjects” (Clinical Pharmacology in Drug Development, 2021)", "key": {"[1]": {"experiment": "Study 2 part 1: effect of aging on pharmacokinetics, 50 mg once daily for 14 days", "assay_type": "in vivo, human", "settings": "for Tmax / Cmax / AUC(0-t) / concentration at 24 h / AUC(0-inf) / half-life: male, human, plasma, oral, 50 mg; for AUC(0-t): read-out: AUC0–24h; for concentration at 24 h: read-out: C24h; for half-life: read-out: t1/2,λz (converted)", "procedure": "During study 2, GLPG1205 50 mg or matching placebo was administered as capsules in the morning 30 minutes after the start of a standard breakfast. Subjects were kept in‐house from the evening of day –1 to ≈26 hours after the first dose (day 2), and from the evening of day 13 until day 15. Administration of the study drug was performed daily at the clinical pharmacology unit. Subjects returned for a follow‐up visit at day 35.\nIn part 1, 24 healthy male subjects were matched into 3 cohorts based on body weight: Cohort A comprised 8 subjects aged 65–74 years, inclusive; cohort B comprised 8 subjects aged ≥75 years (1:1 weight matched with cohort A subjects [± 5 kg]); and cohort C comprised 8 subjects aged 18 to 50 years, inclusive (1:1 weight matched with cohort A subjects [± 5 kg]). All cohorts received GLPG1205 50 mg once daily or matching placebo, in a 3:1 ratio, for 14 days. In the open‐label second part of study 2, 8 subjects (cohort D) aged 65 to 74 years, inclusive, were included to characterize the PK profile after a loading dose of GLPG1205 250 mg on day 1 followed by multiple doses of GLPG1205 50 mg once daily from day 2 to day 14.\nIn the SAD part of study 1, blood samples (2 mL) for PK assessments were obtained before dosing and at multiple time points on the day of study drug administration (before dosing and 0.5, 1, 2, 4, 6, 8, and 12 hours after dosing) and at 24, 48, and 72 hours after dosing. The predose sample for the next dose level was also used in PK analysis (168 hours after dosing). […] In the MAD part of study 1, blood samples (2 mL) were obtained on days 1, 2, 4, 5, 6, 8, 10, 12, 14, 15, 16, 17, and 18 and at follow‐up (approximately 7 to 10 days after the last dose). These PK blood samples were taken after dosing (1, 2, 4, 6, 8, 12, and 24 hours) on day 1; before dosing on days 4, 6, 8, and 10; and after dosing (1, 2, 4, 6, 8, 12, 24, 72, and 96 hours) on day 14. The following additional PK blood samples were also taken: cohort C, before dosing on day 5; and cohorts D and E, before dosing on day 12. Urine samples were obtained from fractions collected over 6‐ or 12‐hour periods after dosing on days –1, 1, 2, 13, 14, and 15; samples obtained on days –1 and 13 were for cytochrome P450 (CYP) induction analysis only. In study 2, blood samples (2 mL) were obtained on days 1, 2, 5, 7, 10, 14, 15, 17, and 20 and at follow‐up (approximately 21 days after end of study medication administration). Blood samples were taken before dosing and at 1, 2, 4, 6, 8, 12, and 24 hours after drug administration on days 1 and 14 and before dosing on other sampling days.\nGLPG1205 plasma concentrations were determined using a validated liquid chromatography with tandem mass spectrometry method. After a protein precipitation with methanol, a chromatographic separation was performed on a Kinetex C18 column (50×3.0 mm, 2.6 μm; Phenomenex, Torrance, California) set at 40°C by using a Nexera high‐performance liquid chromatography (HPLC) system (Shimadzu, Kyoto, Japan) or an Infinity HPLC system (Agilent Technologies, Diegem, Belgium) in isocratic elution mode. A QTRAP6500, QTRAP4000, or API4000 mass spectrometer (AB Sciex, Nieuwerkerk aan den Ijssel, The Netherlands) equipped with a TurboIonSpray probe operated in the multiple reaction monitoring in positive mode was used for quantification. The calibration curves in plasma were linear over the range of 1 to 1000 ng/mL with 1/x^2 as weighting factor. The limit of quantification of the assay in the plasma samples was set at 1 ng/mL.\nPK calculations were performed using Phoenix WinNonlin 6.2 (Pharsight Corporation, Palo Alto, California). […] AUC0‐inf was calculated from the area under the plasma concentration‐time curve from time 0 until the time corresponding with the last observed quantifiable concentration + Ct/λz, where Ct was the last observed quantifiable concentration and λz the first‐order terminal rate constant. […]"}, "[2]": {"set-up": "method as in PMID 32902984", "settings": "monkeys, up to 30 mg/kg/d; cited from earlier work"}, "CYP2C9": {"tested_on": "CYP2C9", "set-up": "method as in data on file at Galapagos, 8, 9", "settings": "100 mg once daily, healthy male subjects; ref data on file at Galapagos, 8, 9; cited from earlier work"}, "[3]": {"settings": "50 mg once daily, cohort A 65-74 y, day 14, mean (CV%), N = 4"}, "[4]": {"settings": "50 mg once daily, cohort A 65-74 y, day 1, mean (CV%)"}, "[5]": {"settings": "50 mg once daily, cohort A 65-74 y, day 14, mean (CV%)"}, "[6]": {"settings": "50 mg once daily, cohort B ≥75 y, day 1, mean (CV%)"}, "[7]": {"settings": "50 mg once daily, cohort B ≥75 y, day 14, mean (CV%)"}, "[8]": {"settings": "50 mg once daily, cohort C 18-50 y, day 1, mean (CV%)"}, "[9]": {"settings": "50 mg once daily, cohort C 18-50 y, day 14, mean (CV%)"}}, "note": "Entries after “also recorded” stand apart in the source; their conditions may differ. Read-outs that look alike come from different tables or passages of the source.", "data": [{"compound": "O=c1nc(OC[C@@H]2COCCO2)cc2n1CCc1cc(C#CC3CC3)ccc1-2", "note": "[GLPG1205, 9‐cyclopropylethynyl‐2‐((S)‐1‐[1,4]dioxan‐2‐ylmethoxy)‐6,7‐dihydropyrimido[6,1‐a]isoquinolin‐4‐one]", "values": [{"measurement": "effect of age on GLPG1205 exposure", "setting": "[1]; 50 mg once daily for 14 days, 3 age groups", "result": "Age did not affect GLPG1205 exposure; also recorded: age has no effect on GLPG1205 exposure; also recorded: Age had no effect on the PK"}, {"measurement": "Rac (accumulation ratio)", "setting": "[1]; 50 mg once daily, cohort A 65-74 y, AUC0-24h day 14/day 1 (Table 5A)", "result": "6.16 (0.74)"}, {"measurement": "AUC0–inf", "setting": "[1]; [3]", "result": "338 (26.0) ^N = 4 μg • h/mL"}, {"measurement": "Rac (accumulation ratio)", "setting": "[1]; 50 mg once daily, cohort B ≥75 y, AUC0-24h day 14/day 1", "result": "5.77 (1.34)"}, {"measurement": "Rac (accumulation ratio)", "setting": "[1]; 50 mg once daily, cohort C 18-50 y, AUC0-24h day 14/day 1", "result": "5.02 (1.66)"}, {"measurement": "Tmax", "setting": "[1]; 50 mg once daily for 14 days, all 3 age groups", "result": "2 to 3", "unit": "h"}, {"measurement": "Cmax", "setting": "[1]; [4]", "result": 0.557, "unit": "µg/mL"}, {"measurement": "AUC(0-t)", "setting": "[1]; [4]", "result": 8.92, "unit": "µg·h/mL"}, {"measurement": "concentration at 24 h", "setting": "[1]; [4]", "result": 0.334, "unit": "µg/mL"}, {"measurement": "Cmax", "setting": "[1]; [5]", "result": 2.75, "unit": "µg/mL"}, {"measurement": "AUC(0-inf)", "setting": "[1]; [3]", "result": 338, "unit": "µg·h/mL"}, {"measurement": "AUC(0-t)", "setting": "[1]; [5]", "result": 54.2, "unit": "µg·h/mL"}, {"measurement": "concentration at 24 h", "setting": "[1]; [5]", "result": 2.44, "unit": "µg/mL"}, {"measurement": "half-life", "setting": "[1]; [5]", "result": 71.9, "unit": "h"}, {"measurement": "Cmax", "setting": "[1]; [6]", "result": 0.44, "unit": "µg/mL"}, {"measurement": "AUC(0-t)", "setting": "[1]; [6]", "result": 6.9, "unit": "µg·h/mL"}, {"measurement": "concentration at 24 h", "setting": "[1]; [6]", "result": 0.29, "unit": "µg/mL"}, {"measurement": "Cmax", "setting": "[1]; [7]", "result": 1.96, "unit": "µg/mL"}, {"measurement": "AUC(0-inf)", "setting": "[1]; 50 mg once daily, cohort B ≥75 y, day 14, mean (CV%), N = 4", "result": 236, "unit": "µg·h/mL"}, {"measurement": "AUC(0-t)", "setting": "[1]; [7]", "result": 39.3, "unit": "µg·h/mL"}, {"measurement": "concentration at 24 h", "setting": "[1]; [7]", "result": 1.82, "unit": "µg/mL"}, {"measurement": "half-life", "setting": "[1]; [7]", "result": 64.5, "unit": "h"}, {"measurement": "Tmax", "setting": "[1]; 50 mg once daily, cohort B ≥75 y, day 14, median (minimum-maximum)", "result": 3, "unit": "h"}, {"measurement": "Cmax", "setting": "[1]; [8]", "result": 0.476, "unit": "µg/mL"}, {"measurement": "AUC(0-t)", "setting": "[1]; [8]", "result": 7.74, "unit": "µg·h/mL"}, {"measurement": "concentration at 24 h", "setting": "[1]; [8]", "result": 0.301, "unit": "µg/mL"}, {"measurement": "Cmax", "setting": "[1]; [9]", "result": 1.95, "unit": "µg/mL"}, {"measurement": "AUC(0-inf)", "setting": "[1]; 50 mg once daily, cohort C 18-50 y, day 14, mean (CV%), N = 5", "result": 194, "unit": "µg·h/mL"}, {"measurement": "AUC(0-t)", "setting": "[1]; [9]", "result": 37.7, "unit": "µg·h/mL"}, {"measurement": "concentration at 24 h", "setting": "[1]; [9]", "result": 1.59, "unit": "µg/mL"}, {"measurement": "half-life", "setting": "[1]; [9]", "result": 56, "unit": "h"}, {"measurement": "dose-proportionality of exposure", "setting": "[2]", "result": "increased dose‐proportionally"}, {"measurement": "effect on exposure of CYP2C9", "setting": "CYP2C9", "result": "did not affect the exposure"}]}]}
